From patent US7704995B2 (Exelixis, Inc., priority 2003, dated 2010)

Columns and labels:
Test in all cases: Kinase specificity assay (33P phosphoryl transfer, LCCA or AlphaScreen)
Format in all cases: biochemical
[1] = target: T1, EphB4 (Homo sapiens, UniProt P54760); conditions: ATP close to KM; read-out: EphB4 inhibition, IC50
T1 sequence (P54760 16-987): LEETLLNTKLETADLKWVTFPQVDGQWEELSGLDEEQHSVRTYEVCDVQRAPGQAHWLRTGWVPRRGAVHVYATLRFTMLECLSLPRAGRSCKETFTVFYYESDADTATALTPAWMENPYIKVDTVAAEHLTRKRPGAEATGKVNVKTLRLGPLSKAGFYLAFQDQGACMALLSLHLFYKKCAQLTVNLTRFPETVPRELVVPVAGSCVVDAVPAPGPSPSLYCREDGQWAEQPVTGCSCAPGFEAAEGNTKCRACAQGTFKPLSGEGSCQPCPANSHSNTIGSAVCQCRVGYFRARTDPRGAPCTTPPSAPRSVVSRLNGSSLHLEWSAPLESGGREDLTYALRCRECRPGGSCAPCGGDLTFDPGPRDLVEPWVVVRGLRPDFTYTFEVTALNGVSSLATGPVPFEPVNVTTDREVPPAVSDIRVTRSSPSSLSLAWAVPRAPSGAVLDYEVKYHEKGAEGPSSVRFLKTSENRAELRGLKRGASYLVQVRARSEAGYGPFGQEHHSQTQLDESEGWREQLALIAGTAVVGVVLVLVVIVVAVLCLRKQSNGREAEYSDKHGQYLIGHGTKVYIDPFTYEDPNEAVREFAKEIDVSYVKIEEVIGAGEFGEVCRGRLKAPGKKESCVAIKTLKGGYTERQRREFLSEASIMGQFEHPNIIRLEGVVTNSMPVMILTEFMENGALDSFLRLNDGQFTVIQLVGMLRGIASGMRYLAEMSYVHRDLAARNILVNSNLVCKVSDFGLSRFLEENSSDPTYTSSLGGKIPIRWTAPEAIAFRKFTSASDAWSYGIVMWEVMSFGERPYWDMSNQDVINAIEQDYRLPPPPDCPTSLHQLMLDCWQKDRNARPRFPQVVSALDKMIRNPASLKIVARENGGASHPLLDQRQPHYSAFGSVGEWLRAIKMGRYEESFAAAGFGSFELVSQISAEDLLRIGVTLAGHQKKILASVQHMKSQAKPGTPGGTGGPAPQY
Description: (§1) Kinase activity and compound inhibition are investigated using one or more of the three assay formats described below. The ATP concentrations for each assay are selected to be close to the Michaelis-Menten constant (KM) for each individual kinase. Dose-response experiments are performed at 10 different inhibitor concentrations in a 384-well plate format. The data are fitted to the following four-parameter equation: Y=Min+(Max−Min)/(1+(X/IC50)^H) where Y is the observed signal, X is the inhibitor concentration, Min is the background signal in the absence of enzyme (0% enzyme activity), Max is the signal in the absence of inhibitor (100% enzyme activity), IC50 is the inhibitor concentration at 50% enzyme inhibition and H represents the empirical Hill's slope to measure the cooperativity. Typically H is close to unity. ^33P Phosphoryl Transfer Assay:
(§2) Greiner 384-well white, clear bottom, high binding plates are coated with 2 μg/well of protein or peptide substrate in a 50 μL volume overnight at ambient temperature. The coating buffer typically contains 40 μg/mL substrate, 22.5 mM Na2CO3, 27.5 mM NaHCO3, 150 mM NaCl and 3 mM NaN3. The coating solution is aspirated and the plates are washed once with 50 μL of assay buffer and padded dry. Subsequently compounds and enzymes are mixed with γ^33P-ATP (3.3 μCi/nmol) in a total volume of 20 uL in suitable assay buffers. The mixture is incubated at ambient temperature for 1.5-2.5 hrs and terminated by aspiration using a Molecular Devices EMBLA 96-head plate washer. The plates are subsequently washed 6-12 times with PBST or TBS buffer. Scintillation fluid (50 μl/well) is then added, the plates are sealed and activity assessed by liquid scintillation spectrometry using a Perkin Elmer MicroBeta TriLux.
(§3) In the LCCA assays, kinase activity is measured as the percent ATP consumed following the kinase reaction using luciferase-luciferin-coupled chemiluminescence. Greiner 384-well white, clear bottom, medium binding plates are used for LCCA. Briefly, the kinase reaction is initiated by mixing compounds, ATP and kinase in a 20 uL volume. The mixture is incubated at ambient temperature for 2-4 hrs. At the end of the kinase reaction, a 20 uL luciferase-luciferin mix is added and the chemiluminescent signal is read using a Wallac Victor^2 reader. The luciferase-luciferin mix consists of 50 mM HEPES, pH 7.8, 8.5 ug/mL oxalic acid (pH 7.8), 5 (or 50) mM DTT, 0.4% Triton X-100, 0.25 mg/mL coenzyme A, 63 uM AMP, 28 ug/mL luciferin and 40,000 units of light/mL luciferase. For the LCCA assays, total ATP consumption has been standardized to 25-45% and the IC50 values correlates well with those determined by radiometric assays.
(§4) AlphaScreen technology is a proximity assay which utilizes the increase in fluorescent signal when donor and acceptor beads are close in proximity. Biotinylated poly(Glu,Tyr) 4:1 is used as the kinase substrate, in conjunction with streptavidin-coated donor beads and anti-phosphortyrosine antibody PY100-coated acceptor beads. Upon phosphorylation, the peptide substrate can bind to both donor and acceptor beads giving rise to an increase in fluorescence. Compounds, ATP, biotinylated poly(Glu, Tyr) and kinases are mixed in a volume of 20 uL for 1 hr at ambient temperature using Greiner 384-well white clear bottom medium binding plates. Following incubation a 10 uL solution containing […] AlphaScreen beads, 75 mM Hepes, pH 7.4, 300 mM NaCl, 120 mM EDTA, 0.3% BSA and 0.03% Tween-20 is added to each well. After 2-16 hr incubation of the beads, plates are read in a Perkin Elmer AlphaQuest reader. The IC50 values correlates well with those of radiometric assays.

[2] = target: ErbB2 (Homo sapiens, UniProt P04626); conditions: ATP close to KM; read-out: ErbB2 inhibition, IC50
Sequence of ErbB2 (P04626 23-1255): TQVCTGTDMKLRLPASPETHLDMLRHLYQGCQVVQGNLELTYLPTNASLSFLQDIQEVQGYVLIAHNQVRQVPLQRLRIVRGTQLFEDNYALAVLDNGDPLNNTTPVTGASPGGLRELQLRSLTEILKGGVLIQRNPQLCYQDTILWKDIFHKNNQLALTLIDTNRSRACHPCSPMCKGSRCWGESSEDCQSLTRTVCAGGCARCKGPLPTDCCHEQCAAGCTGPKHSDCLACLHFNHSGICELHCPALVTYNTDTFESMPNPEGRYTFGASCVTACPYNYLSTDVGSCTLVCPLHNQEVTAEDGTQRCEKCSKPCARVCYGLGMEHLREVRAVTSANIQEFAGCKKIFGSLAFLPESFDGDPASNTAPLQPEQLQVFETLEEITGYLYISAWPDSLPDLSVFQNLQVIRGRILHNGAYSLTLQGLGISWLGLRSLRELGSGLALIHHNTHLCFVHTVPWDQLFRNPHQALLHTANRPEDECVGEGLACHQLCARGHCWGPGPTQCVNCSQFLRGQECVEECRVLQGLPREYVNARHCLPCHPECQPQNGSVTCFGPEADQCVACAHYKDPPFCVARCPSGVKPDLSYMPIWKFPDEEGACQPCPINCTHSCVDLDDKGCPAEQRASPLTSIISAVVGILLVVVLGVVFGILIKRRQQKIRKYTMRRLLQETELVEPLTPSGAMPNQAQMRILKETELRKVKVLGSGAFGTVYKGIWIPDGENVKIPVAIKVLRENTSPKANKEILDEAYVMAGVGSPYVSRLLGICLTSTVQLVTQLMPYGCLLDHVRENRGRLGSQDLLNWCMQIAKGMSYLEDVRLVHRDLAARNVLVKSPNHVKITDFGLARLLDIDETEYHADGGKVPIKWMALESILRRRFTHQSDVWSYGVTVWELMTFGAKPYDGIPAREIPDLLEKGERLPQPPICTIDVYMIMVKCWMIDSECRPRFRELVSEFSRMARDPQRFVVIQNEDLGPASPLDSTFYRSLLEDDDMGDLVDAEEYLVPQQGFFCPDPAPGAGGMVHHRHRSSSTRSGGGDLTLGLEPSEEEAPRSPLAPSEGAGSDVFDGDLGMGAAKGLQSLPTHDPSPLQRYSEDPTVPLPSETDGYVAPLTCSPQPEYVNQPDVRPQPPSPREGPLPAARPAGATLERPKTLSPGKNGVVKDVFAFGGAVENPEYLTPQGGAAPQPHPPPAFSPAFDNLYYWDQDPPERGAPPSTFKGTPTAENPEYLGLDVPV
Description: as §1, §2, §3, §4

[3] = target: FGFR1 (Homo sapiens, UniProt P11362); conditions: ATP close to KM; read-out: FGFR1 inhibition, IC50
Sequence of FGFR1 (P11362 22-822): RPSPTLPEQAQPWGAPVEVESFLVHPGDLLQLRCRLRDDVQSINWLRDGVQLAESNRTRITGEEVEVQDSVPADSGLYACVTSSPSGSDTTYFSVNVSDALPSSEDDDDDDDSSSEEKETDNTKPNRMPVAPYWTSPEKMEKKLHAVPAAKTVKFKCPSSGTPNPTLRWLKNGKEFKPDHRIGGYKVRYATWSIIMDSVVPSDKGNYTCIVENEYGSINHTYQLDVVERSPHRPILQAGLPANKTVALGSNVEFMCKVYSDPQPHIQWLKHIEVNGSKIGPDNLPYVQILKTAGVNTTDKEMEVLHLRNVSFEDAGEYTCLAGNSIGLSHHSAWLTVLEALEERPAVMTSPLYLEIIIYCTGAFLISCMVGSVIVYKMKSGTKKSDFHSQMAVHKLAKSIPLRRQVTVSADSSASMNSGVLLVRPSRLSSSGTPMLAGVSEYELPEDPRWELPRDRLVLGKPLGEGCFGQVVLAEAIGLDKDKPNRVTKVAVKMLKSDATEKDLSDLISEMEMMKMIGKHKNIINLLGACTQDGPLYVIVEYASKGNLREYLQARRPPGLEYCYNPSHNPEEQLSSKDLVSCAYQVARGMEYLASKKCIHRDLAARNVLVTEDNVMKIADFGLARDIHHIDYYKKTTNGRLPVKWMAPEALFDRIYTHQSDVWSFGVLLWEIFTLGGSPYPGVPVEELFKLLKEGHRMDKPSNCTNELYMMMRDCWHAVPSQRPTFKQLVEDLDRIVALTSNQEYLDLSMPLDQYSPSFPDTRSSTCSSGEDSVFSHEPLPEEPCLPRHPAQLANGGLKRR
Description: as §1, §2, §3, §4

[4] = target: IRK (Homo sapiens, UniProt P06213); conditions: ATP close to KM; read-out: IRK inhibition, IC50
Sequence of IRK (P06213 28-1382): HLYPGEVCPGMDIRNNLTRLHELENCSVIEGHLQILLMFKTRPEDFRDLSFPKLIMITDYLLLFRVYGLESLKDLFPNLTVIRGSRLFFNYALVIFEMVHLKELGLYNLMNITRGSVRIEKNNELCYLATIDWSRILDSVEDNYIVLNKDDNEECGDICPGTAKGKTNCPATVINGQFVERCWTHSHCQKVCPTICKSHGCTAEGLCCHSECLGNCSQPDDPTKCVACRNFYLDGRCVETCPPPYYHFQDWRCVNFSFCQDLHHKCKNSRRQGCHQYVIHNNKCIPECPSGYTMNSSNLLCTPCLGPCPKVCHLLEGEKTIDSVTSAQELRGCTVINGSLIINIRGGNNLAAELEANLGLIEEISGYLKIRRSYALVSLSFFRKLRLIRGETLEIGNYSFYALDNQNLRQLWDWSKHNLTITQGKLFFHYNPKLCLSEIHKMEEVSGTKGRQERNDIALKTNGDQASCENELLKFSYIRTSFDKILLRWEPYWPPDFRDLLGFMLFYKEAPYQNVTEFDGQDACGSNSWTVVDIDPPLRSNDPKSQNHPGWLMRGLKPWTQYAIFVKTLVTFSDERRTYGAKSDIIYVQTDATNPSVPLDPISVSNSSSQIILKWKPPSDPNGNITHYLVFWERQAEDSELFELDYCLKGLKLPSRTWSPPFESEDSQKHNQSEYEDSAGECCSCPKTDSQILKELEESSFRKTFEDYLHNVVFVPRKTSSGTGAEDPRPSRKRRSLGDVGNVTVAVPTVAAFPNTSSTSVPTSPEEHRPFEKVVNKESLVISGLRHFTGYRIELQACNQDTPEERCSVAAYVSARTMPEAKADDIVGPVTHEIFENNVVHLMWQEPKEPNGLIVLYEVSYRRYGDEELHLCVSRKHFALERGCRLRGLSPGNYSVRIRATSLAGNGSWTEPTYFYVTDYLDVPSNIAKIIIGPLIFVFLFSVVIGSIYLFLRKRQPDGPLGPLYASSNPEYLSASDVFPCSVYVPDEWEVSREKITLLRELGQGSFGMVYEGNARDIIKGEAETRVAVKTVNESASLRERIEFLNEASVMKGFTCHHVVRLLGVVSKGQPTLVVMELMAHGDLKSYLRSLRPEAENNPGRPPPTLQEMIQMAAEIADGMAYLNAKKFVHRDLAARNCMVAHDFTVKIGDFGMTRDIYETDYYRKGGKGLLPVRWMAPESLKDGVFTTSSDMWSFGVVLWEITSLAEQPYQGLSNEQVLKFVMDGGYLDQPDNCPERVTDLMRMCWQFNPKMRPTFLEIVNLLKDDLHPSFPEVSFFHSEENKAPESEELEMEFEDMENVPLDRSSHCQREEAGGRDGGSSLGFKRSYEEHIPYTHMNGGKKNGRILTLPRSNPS
Description: as §1, §2, §3, §4

Which results are given for `NC(=O)c1nc(-c2cccc3ccccc23)cnc1N` [Example 2, 3-Amino-6-naphthalen-1-ylpyrazine-2-carboxamide]?
IC50 [1]: ≥ 10 µM; IC50 [2]: ≥ 10 µM; IC50 [3]: 1 to 10 µM; IC50 [4]: ≥ 10 µM
